From the Kinase Knowledgebase extract (Sharma et al. 2016) come the findings set out here.

pIC50: −log10 of the molar value.

This test deals with PIK3CG (human) (UniProt P48736). The experiment in a line: Assessment of PIK3CG Kinase Activity.
PIK3CG (human), sequence (P48736 whole entry, looked up): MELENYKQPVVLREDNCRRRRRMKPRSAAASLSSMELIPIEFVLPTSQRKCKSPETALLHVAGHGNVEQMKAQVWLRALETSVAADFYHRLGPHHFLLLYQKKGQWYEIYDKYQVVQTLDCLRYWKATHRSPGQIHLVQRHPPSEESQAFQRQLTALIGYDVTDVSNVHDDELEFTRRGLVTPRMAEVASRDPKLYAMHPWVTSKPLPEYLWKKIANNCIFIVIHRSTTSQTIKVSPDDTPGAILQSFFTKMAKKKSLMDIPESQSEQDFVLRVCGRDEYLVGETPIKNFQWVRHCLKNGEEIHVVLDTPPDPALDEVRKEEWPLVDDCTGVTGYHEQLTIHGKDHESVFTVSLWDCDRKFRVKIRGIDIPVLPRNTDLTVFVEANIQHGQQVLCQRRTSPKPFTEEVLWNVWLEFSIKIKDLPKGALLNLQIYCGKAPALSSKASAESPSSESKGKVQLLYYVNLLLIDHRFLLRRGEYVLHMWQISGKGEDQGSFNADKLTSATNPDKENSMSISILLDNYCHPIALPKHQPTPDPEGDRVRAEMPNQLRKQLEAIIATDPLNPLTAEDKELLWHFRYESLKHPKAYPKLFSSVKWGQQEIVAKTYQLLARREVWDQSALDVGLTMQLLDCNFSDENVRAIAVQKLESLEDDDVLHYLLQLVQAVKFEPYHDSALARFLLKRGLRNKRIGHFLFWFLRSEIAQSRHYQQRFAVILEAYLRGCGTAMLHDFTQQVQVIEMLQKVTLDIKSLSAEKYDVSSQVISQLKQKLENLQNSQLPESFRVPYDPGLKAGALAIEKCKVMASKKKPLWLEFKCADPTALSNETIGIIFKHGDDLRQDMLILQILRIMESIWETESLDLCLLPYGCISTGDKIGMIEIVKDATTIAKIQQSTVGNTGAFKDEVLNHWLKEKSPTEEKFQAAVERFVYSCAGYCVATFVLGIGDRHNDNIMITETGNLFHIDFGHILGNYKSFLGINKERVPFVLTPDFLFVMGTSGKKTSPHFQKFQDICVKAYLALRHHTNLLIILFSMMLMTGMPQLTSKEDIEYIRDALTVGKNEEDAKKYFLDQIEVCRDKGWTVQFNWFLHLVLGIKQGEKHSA

Consider `O=C(NCc1ccc2nc[nH]c2c1)Nc1nc2c(s1)-c1c(c(-c3cncnc3)nn1-c1ccccc1Cl)CC2`, for which the pIC50 (as a rule, the IC50 on a negative log10 scale, so that one unit is a factor of ten) is greater than 6.10.

`CC(C)c1nnc(CCNC(=O)Nc2nc3c(s2)-c2c(c(C4CC4)nn2-c2ccccc2Cl)CC3)o1` had a pIC50 greater than 6.10.

`CN(Cc1cccc(CNC(=O)Nc2nc3c(s2)-c2c(c(-c4cccnc4)nn2-c2ccccc2Cl)CC3)c1)C(=O)OC(C)(C)C` showed a negative logarithm of the IC50 (pIC50) greater than 6.10.

For the compound `CC(C)(C)OC(=O)CCNC(=O)Nc1nc2c(s1)-c1c(c(-c3cccnc3)nn1-c1ccccc1Cl)CC2`, the negative logarithm of the IC50 (pIC50) is greater than 6.10.

Consider `CC(C)(C)OC(=O)N1CC[C@@H](CNC(=O)Nc2nc3c(s2)-c2c(c(-c4cncnc4)nn2-c2ccccc2Cl)CC3)C1`, for which the pIC50 is greater than 6.10.

Regarding `CC(C)c1cnc(CCNC(=O)Nc2nc3c(s2)-c2c(c(C4CC4)nn2-c2ccccc2Cl)CC3)o1`, the pIC50 was greater than 6.10.

`CC(C)c1noc(CCNC(=O)Nc2nc3c(s2)-c2c(c(C4CC4)nn2-c2ccccc2Cl)CC3)n1` gave a pIC50 greater than 6.10.

`CC(C)c1nnc(CCNC(=O)Nc2nc3c(s2)-c2c(c(-c4cccnc4)nn2-c2ccccc2Cl)CC3)o1` gave a pIC50 greater than 6.10.

Compound `CCn1cnc(CCNC(=O)Nc2nc3c(s2)-c2c(c(-c4cncnc4)nn2-c2ccccc2Cl)CC3)c1` showed a negative-log IC50 (pIC50) greater than 6.10.

Turning to `O=C(Nc1nc2c(s1)-c1c(c(-c3cccnc3)nn1-c1ccccc1Cl)CC2)N1CCC(N2CCNC2=O)CC1`, the pIC50 is greater than 6.10.

As to `O=C(NCCn1cc[nH]c1=O)Nc1nc2c(s1)-c1c(c(-c3ccccc3)nn1-c1ccccc1Cl)CC2`, the negative-log IC50 (pIC50) was greater than 6.10.

For `CC(C)c1nnc(CCNC(=O)Nc2nc3c(s2)-c2c(c(-c4cncnc4)nn2-c2ccccc2Cl)CC3)o1`, the negative logarithm of the IC50 (pIC50) was greater than 6.10.

In turn, `CCn1cnc(CCNC(=O)Nc2nc3c(s2)-c2c(c(-c4cccnc4)nn2C2CCN(C)CC2)CC3)c1` gave a pIC50 greater than 6.10.

Compound `CC(C)(C)OCCNC(=O)Nc1nc2c(s1)-c1c(c(-c3ccccc3)nn1-c1ccccc1Cl)CC2` gave a negative logarithm of the IC50 (pIC50) greater than 6.10.

The compound `CC(=O)NCC1CCCN(C(=O)Nc2nc3c(s2)-c2c(c(-c4cccnc4)nn2-c2ccccc2Cl)CC3)C1` (configuration not stated) gave a pIC50 greater than 6.10.

Take `O=C(NC[C@H]1CCCN1C(=O)Oc1ccccc1)Nc1nc2c(s1)-c1c(c(-c3cncnc3)nn1-c1ccccc1Cl)CC2`: the pIC50 is greater than 6.10.

The compound `O=C(Nc1nc2c(s1)-c1c(c(-c3cncnc3)nn1-c1ccccc1Cl)CC2)NC1CCCNC1` (configuration not stated) gave a pIC50 greater than 6.10.

Turning to `CC(C)(C)OC(=O)CCNC(=O)Nc1nc2c(s1)-c1c(c(-c3ccccc3)nn1-c1ccccc1Cl)CC2`, the negative logarithm of the IC50 (pIC50) was greater than 6.10.

Compound `CC(C)c1noc(CCNC(=O)Nc2nc3c(s2)-c2c(c(-c4cccnc4)nn2C2CCN(C)CC2)CC3)n1` gave a negative-log IC50 (pIC50) greater than 6.10.

Compound `CNC(=O)c1cccc(CNC(=O)Nc2nc3c(s2)-c2c(c(-c4cccnc4)nn2C2CCN(C)CC2)CC3)c1` had a pIC50 greater than 6.10.

As to `CC(C)(C)OC(=O)N1CCC[C@H]1CNC(=O)Nc1nc2c(s1)-c1c(c(-c3cncnc3)nn1-c1ccccc1Cl)CC2`, the pIC50 was greater than 6.10.

`CS(=O)(=O)Nc1cccc(NC(=O)Nc2nc3c(s2)-c2c(c(-c4ccccc4)nn2-c2ccccc2Cl)CC3)c1` had a pIC50 greater than 6.10.

With `NC(=O)c1cccc(CNC(=O)Nc2nc3c(s2)-c2c(c(-c4cccnc4)nn2C2CCN(C4CCCC4)CC2)CC3)c1`, the pIC50 was greater than 6.10.

Consider `CN(C)CC(=O)N1CC[C@H](CNC(=O)Nc2nc3c(s2)-c2c(c(-c4cncnc4)nn2-c2ccccc2Cl)CC3)C1`, for which the pIC50 is greater than 6.10.

In turn, `Cn1cc(CNC(=O)Nc2nc3c(s2)-c2c(c(-c4cccnc4)nn2-c2ccccc2Cl)CC3)cn1` had a pIC50 greater than 6.10.

As to `CC(C)(C)CC(=O)N1CCC[C@@H]1CNC(=O)Nc1nc2c(s1)-c1c(c(-c3cncnc3)nn1-c1ccccc1Cl)CC2`, the pIC50 is greater than 6.10.

Compound `CC(C)(CNc1ccc(C(C)(C)C)cc1)NC(=O)Nc1nc2c(s1)-c1c(c(-c3cccnc3)nn1-c1ccccc1Cl)CC2` gave a pIC50 greater than 6.10.

The compound `O=C(NCCc1nc(C2CC2)no1)Nc1nc2c(s1)-c1c(c(-c3ccccc3)nn1-c1cccc(Cl)c1)CC2` showed a pIC50 greater than 6.10.

Regarding `NC(=O)Nc1cccc(CNC(=O)Nc2nc3c(s2)-c2c(c(C4CC4)nn2-c2ccccc2Cl)CC3)c1`, the pIC50 was greater than 6.10.

For `CC(C)(C)OC(=O)N1CCC[C@H]1CNC(=O)Nc1nc2c(s1)-c1c(c(-c3cncnc3)nn1-c1ccccc1F)CC2`, the pIC50 is greater than 6.10.

`CCc1noc(CCNC(=O)Nc2nc3c(s2)-c2c(c(-c4ccccc4)nn2-c2cccc(Cl)c2)CC3)n1` showed a pIC50 greater than 6.10.

`CCNC(=O)Nc1nc2c(s1)-c1c(c(-c3cccnc3)nn1-c1ccc(S(N)(=O)=O)cc1Cl)CC2` showed a pIC50 greater than 6.10.

As to `CN(C)C(=O)CCCNC(=O)Nc1nc2c(s1)-c1c(c(-c3ccccc3)nn1-c1ccccc1Cl)CC2`, the pIC50 is greater than 6.10.

Take `CCc1cnc(CCNC(=O)Nc2nc3c(s2)-c2c(c(-c4cncnc4)nn2C2CCN(C)CC2)CC3)o1`: the pIC50 is greater than 6.10.

In turn, `CC(C)(C)OC(=O)N1CCCCC1CNC(=O)Nc1nc2c(s1)-c1c(c(-c3cncnc3)nn1-c1ccccc1Cl)CC2` (configuration not stated) showed a pIC50 greater than 6.10.

Consider `CN1CCC(n2nc(-c3cccnc3)c3c2-c2sc(NC(=O)NCC(=O)N(C)C)nc2CC3)CC1`, for which the negative-log IC50 (pIC50) is greater than 6.10.

As to `CCn1cnc(CCNC(=O)Nc2nc3c(s2)-c2c(c(-c4ccccc4)nn2-c2ccccc2Cl)CC3)c1`, the pIC50 was greater than 6.10.

Compound `CCOCCNC(=O)Nc1nc2c(s1)-c1c(c(-c3ccccc3)nn1-c1ccccc1Cl)CC2` had a pIC50 greater than 6.10.

On to `O=C(NCc1cccc(N2CCNC2=O)c1)Nc1nc2c(s1)-c1c(c(Nc3ccccn3)nn1-c1ccccc1)CC2`, for which the pIC50 is greater than 6.10.

`O=C(NC[C@@H]1CCCN1)Nc1nc2c(s1)-c1c(c(-c3cncnc3)nn1-c1ccccc1Cl)CC2` showed a negative logarithm of the IC50 (pIC50) greater than 6.10.

For `CS(=O)(=O)c1ccc(CNC(=O)Nc2nc3c(s2)-c2c(c(-c4cncnc4)nn2-c2ccccc2Cl)CC3)cc1`, the negative logarithm of the IC50 (pIC50) was greater than 6.10.

Consider `N#Cc1cccc(CNC(=O)Nc2nc3c(s2)-c2c(c(-c4cncnc4)nn2-c2ccccc2Cl)CC3)c1`, for which the pIC50 is greater than 6.10.

`CNC(=O)c1cccc(CNC(=O)Nc2nc3c(s2)-c2c(c(-c4cccnc4)nn2-c2ccccc2Cl)CC3)c1` gave a pIC50 greater than 6.10.

`CNC(=O)Nc1nc2c(s1)-c1c(c(-c3cccnc3)nn1-c1ccc(S(N)(=O)=O)cc1Cl)CC2` showed a pIC50 greater than 6.10.

`CN(C)CCOc1cccc(CNC(=O)Nc2nc3c(s2)-c2c(c(-c4cncnc4)nn2-c2ccccc2Cl)CC3)c1` gave a pIC50 greater than 6.10.

In turn, `COC(=O)N1CC[C@H](CNC(=O)Nc2nc3c(s2)-c2c(c(-c4cncnc4)nn2-c2ccccc2Cl)CC3)C1` had a negative logarithm of the IC50 (pIC50) greater than 6.10.

The compound `CC(C)c1nnc(CCNC(=O)Nc2nc3c(s2)-c2c(c(-c4ccccc4)nn2-c2cccc(Cl)c2)CC3)o1` had a pIC50 greater than 6.10.

Take `CC(C)c1nnc(CCNC(=O)Nc2nc3c(s2)-c2c(c(-c4cccnc4)nn2C2CCN(C)CC2)CC3)o1`: the pIC50 was greater than 6.10.

Compound `CN(C)c1cccc(CNC(=O)Nc2nc3c(s2)-c2c(c(-c4cccnc4)nn2-c2ccccc2Cl)CC3)c1` had a pIC50 greater than 6.10.

Compound `CC(C)c1cnc(CCNC(=O)Nc2nc3c(s2)-c2c(c(-c4ccccc4)nn2-c2cccc(Cl)c2)CC3)o1` showed a negative-log IC50 (pIC50) greater than 6.10.

Compound `CCc1noc(CCNC(=O)Nc2nc3c(s2)-c2c(c(-c4cccnc4)nn2C2CCN(C)CC2)CC3)n1` had a negative logarithm of the IC50 (pIC50) greater than 6.10.

`CN(C)C(=O)CCNC(=O)Nc1nc2c(s1)-c1c(c(-c3cccnc3)nn1C1CCN(C3CCCC3)CC1)CC2` showed a negative logarithm of the IC50 (pIC50) greater than 6.10.
